Results as given in paper PMC3115714 (Bioorganic & medicinal chemistry, 2011).

What was measured:
[1] = target: μ-opioid receptor (CHO hMOR) (Homo sapiens, UniProt P35372); format: binding
[2] = target: δ-opioid receptor (CHO hDOR) (Homo sapiens, UniProt P41143); experiment: Opioid receptor binding assay, [3H]DADLE displacement in hDOR-CHO cell membranes; conditions: selectivity μ over δ, from Ki
[3] = target: κ-opioid receptor (CHO hKOR) (Homo sapiens, UniProt P41145); format: binding
[4] = target: μ-opioid receptor (hMOR-CHO) (Homo sapiens, UniProt P35372); experiment: biochemical; format: biochemical
Chain of μ-opioid receptor (hMOR-CHO) (P35372 whole entry): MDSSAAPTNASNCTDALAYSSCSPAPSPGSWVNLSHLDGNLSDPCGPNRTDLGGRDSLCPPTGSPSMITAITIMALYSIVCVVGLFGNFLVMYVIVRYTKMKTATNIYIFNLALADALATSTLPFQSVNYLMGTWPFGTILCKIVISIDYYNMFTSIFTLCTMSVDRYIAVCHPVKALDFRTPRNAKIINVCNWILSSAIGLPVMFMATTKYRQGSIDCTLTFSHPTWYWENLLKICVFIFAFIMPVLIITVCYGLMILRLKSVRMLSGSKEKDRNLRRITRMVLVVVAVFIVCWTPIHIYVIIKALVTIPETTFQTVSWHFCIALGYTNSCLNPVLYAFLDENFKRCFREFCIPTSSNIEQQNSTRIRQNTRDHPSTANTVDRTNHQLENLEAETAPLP

[5] = target: κ-opioid receptor (hKOR-CHO) (Homo sapiens, UniProt P41145); experiment: biochemical; format: biochemical
Chain of κ-opioid receptor (hKOR-CHO) (P41145 whole entry): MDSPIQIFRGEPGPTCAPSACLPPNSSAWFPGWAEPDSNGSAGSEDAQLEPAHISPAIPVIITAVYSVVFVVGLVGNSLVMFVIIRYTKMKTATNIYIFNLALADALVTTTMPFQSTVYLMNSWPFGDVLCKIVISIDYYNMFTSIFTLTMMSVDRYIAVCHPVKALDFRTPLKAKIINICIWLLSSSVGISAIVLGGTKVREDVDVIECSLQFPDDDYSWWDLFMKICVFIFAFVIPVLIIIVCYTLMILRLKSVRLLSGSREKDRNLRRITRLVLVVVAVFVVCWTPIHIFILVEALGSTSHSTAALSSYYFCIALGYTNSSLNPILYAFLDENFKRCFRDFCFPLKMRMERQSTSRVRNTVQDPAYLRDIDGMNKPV

Chain of δ-opioid receptor (CHO hDOR) (P41143 whole entry): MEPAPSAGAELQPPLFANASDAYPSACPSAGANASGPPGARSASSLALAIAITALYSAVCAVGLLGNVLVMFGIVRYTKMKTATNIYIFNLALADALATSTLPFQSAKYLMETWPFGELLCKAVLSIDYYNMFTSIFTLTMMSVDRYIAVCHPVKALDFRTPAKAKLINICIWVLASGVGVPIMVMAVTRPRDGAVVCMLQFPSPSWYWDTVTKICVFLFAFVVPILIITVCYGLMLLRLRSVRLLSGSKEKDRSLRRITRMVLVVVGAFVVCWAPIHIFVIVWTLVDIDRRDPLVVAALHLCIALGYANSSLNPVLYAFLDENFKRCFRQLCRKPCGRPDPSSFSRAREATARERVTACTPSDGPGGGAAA
Chain of κ-opioid receptor (CHO hKOR) (P41145 whole entry): as the sequence (P41145 whole entry) above
Chain of μ-opioid receptor (CHO hMOR) (P35372 whole entry): as the sequence (P35372 whole entry) above

## Oc1cccc2c1O[C@@H]1CN(CCc3ccccc3)[C@@H]3CCC[C@]21C3 (relative stereo) [Cmpd 12, (3R*,6aS*,11aS*)-2-Phenethyl-2,3,4,5,6,11a-hexahydro-1H -3,6a-methanobenzofuro[2,3-c]azocin-10-ol]
[1]
  μ affinity relative to morphine: two to three times the affinity of morphine
[2]
  fold less affinity for δ-receptors than for the μ-receptor: about 1200 fold
[3]
  fold less affinity for κ-receptors than for the μ-receptor: about 50 fold
[4]
  Kb: 0.71 ± 0.09 nM
  potency as μ-opioid antagonist relative to naloxone: more than three times as potent as naloxone
[5]
  Kb: 1.79 ± 0.51 nM
  κ-opioid antagonist potency relative to norBNI: one tenth the potency of norBNI
